Converted amounts (≈) assume the structure as drawn. *1 amine or outer side, *2 acyl side, *3 side chain or, on linkers, in order; H or OH if unused. Where a SMILES comes first, the peptide text is derived from it. [ ]: non-standard residue; d: D form. The star is where a group is joined. Ava(2S,3R-(OH)2,4S-OMe) = CO[C@@H](CN[*:1])[C@H](O)[C@H](O)C(=O)[*:2]; dHis(βS-OH,π-Me) = Cn1cncc1[C@@H](O)[C@@H](N)C(=O)O; Butanoyl(2R-OH,3S-OH) = C[C@H](O)[C@@H](O)C(=O)*; Val(3-OH) = CC(C)(O)[C@H](N)C(=O)O; NMeF = CN[C@@H](Cc1ccccc1)C(=O)O

The test system of series [1] is Enterococcus faecalis 1069 VanB. The class given is cell-based. Here is the method:
5. Determination of the minimal inhibitory concentration (MIC) in vitro The MIC of Corramycin was evaluated following the Clinical & Laboratory Standard Institute (CLSI; https://clsi.org) and EUCAST (https://eucast.org) guidelines. First, inoculi of the bacterial test strains were prepared by culturing isolated colonies in cation-adjusted Müller Hinton broth (CAMHB; 2 g L-1 beef infusion solids, 1.5 g L-1 starch, 17.5 g L-1 casein hydrolysates, final pH 7.4) at 37 °C and 180 rpm for 18 h. Next, Corramycin, which was dissolved in DMSO, was transferred into the first row of a 96-well plate to reach an end concentration of 64 µg mL-1 (in 100 µL total volume). A 1:1 serial dilution in cation-adjusted Mueller Hinton broth (CAMHB) of the test compound was done from the top row to the bottom row of the 96-well plate to reach an end concentration of 0.125 µg mL-1 in the bottom row. Afterwards, the respective test strains were transferred into the wells, reaching a total volume of 100 µL and 5x10^5 colony-forming units (CFU) mL-1. After a 20 to 22 h of incubation, the optical density was evaluated on a microplate reader and the MIC endpoint was determined as the lowest concentration of antibiotic at which there was no visible growth observed. Each MIC experiment was performed in duplicates. Table S 4 depicts the MIC values of Corramycin against all bacterial strains tested in this study. […]

The format of series [2] is in vivo. The following applies: single i.v. bolus 30 mg kg-1, male Swiss mice, LC/MS-MS, three animals per sampling time. As to the method: However, despite this rapid elimination, the antibacterial effect was strong enough in the animals to achieve survival after a single day of treatment.
Figure S 71. A) Blood bacteremia experiment. E. coli ATCC35218 CFU load after treatment of infected mice with 10 mg kg-1, 20 mg kg-1 or 30 mg kg-1 Corramycin. B) Survival of the E. coli ATCC35218 infected mice in %, after one day of treatment with either 0.9 % NaCl (negative control), Tienam (15 mg kg-1 Imipenem; positive control) or Corramycin in three different doses (10 mg kg-1, 20 mg kg-1 or 30 mg kg-1).
14.2 Corramycin elimination experiment
Native Corramycin systemic exposure was determined following a single intravenous (30 mg kg-1 expressed as active compound) bolus administration to male Swiss mice. […]
Lung, brain, kidney, heart and liver were collected at each sampling time (5 min, 0.5, 1, 2, 4, 6, 8 and 24 h post administration) pooled per sampling time, weighed and frozen at -20 °C until analysis. Native Corramycin was quantified in the plasma and tissues using an exploratory LC/MS-MS assay method in Early Bioanalysis Group of Toulouse (Montpellier DSAR Operational Center), France. […] The pharmacokinetic parameters were calculated from the arithmetic mean of the plasma concentrations or the tissue concentrations (lung, brain, kidney, heart and liver) using the program WinNonLin 5.2, non-compartmental models 200 and 201. […]

The test system of another series is Escherichia coli 1705863. The class given is cell-based. The following applies: strain 1705863; CAMHB, CLSI/EUCAST broth microdilution, 5x10^5 CFU mL-1, 20-22 h, duplicates. As to the method: (§1) 5. Determination of the minimal inhibitory concentration (MIC) in vitro The MIC of Corramycin was evaluated following the Clinical & Laboratory Standard Institute (CLSI; https://clsi.org) and EUCAST (https://eucast.org) guidelines. First, inoculi of the bacterial test strains were prepared by culturing isolated colonies in cation-adjusted Müller Hinton broth (CAMHB; 2 g L-1 beef infusion solids, 1.5 g L-1 starch, 17.5 g L-1 casein hydrolysates, final pH 7.4) at 37 °C and 180 rpm for 18 h. Next, Corramycin, which was dissolved in DMSO, was transferred into the first row of a 96-well plate to reach an end concentration of 64 µg mL-1 (in 100 µL total volume). A 1:1 serial dilution in cation-adjusted Mueller Hinton broth (CAMHB) of the test compound was done from the top row to the bottom row of the 96-well plate to reach an end concentration of 0.125 µg mL-1 in the bottom row. Afterwards, the respective test strains were transferred into the wells, reaching a total volume of 100 µL and 5x10^5 colony-forming units (CFU) mL-1. After a 20 to 22 h of incubation, the optical density was evaluated on a microplate reader and the MIC endpoint was determined as the lowest concentration of antibiotic at which there was no visible growth observed. Each MIC experiment was performed in duplicates. Table S 4 depicts the MIC values of Corramycin against all bacterial strains tested in this study.
(§2) Table S 4. MIC values of Corramycin against all bacterial strains tested in this study. […]
Background: Broth dilution looks for growth in wells or tubes with falling amounts of substance.

Series [3] relates to Escherichia coli NCTC13441. The class given is cell-based. The settings on record: strain NCTC13441; CAMHB, CLSI/EUCAST broth microdilution, 5x10^5 CFU mL-1, 20-22 h, duplicates. As to the method:
as §1, §2

The test system of series [4] is Escherichia coli MG1655 WT. The class given is cell-based. The settings on record: strain MG1655 WT; CAMHB, CLSI/EUCAST broth microdilution, 5x10^5 CFU mL-1, 20-22 h, duplicates. As to the method: as §1, §2
Series [5] relates to Klebsiella pneumoniae 1705949. The class given is cell-based. The settings on record: strain 1705949; CAMHB, CLSI/EUCAST broth microdilution, 5x10^5 CFU mL-1, 20-22 h, duplicates. As to the method: as §1, §2
Series [6] concerns Escherichia coli DSM46345. The class given is cell-based. The settings on record: strain DSM46345; CAMHB, CLSI/EUCAST broth microdilution, 5x10^5 CFU mL-1, 20-22 h, duplicates. Here is the method: as §1, §2
For series [7], the system named is Enterococcus faecium DSM17050. The class given is cell-based. The settings on record: strain DSM17050; CAMHB, CLSI/EUCAST broth microdilution, 5x10^5 CFU mL-1, 20-22 h, duplicates. As to the method: as §1, §2
Series [8] deals with Escherichia coli ATCC35218. The class given is cell-based. The following applies: strain ATCC35218; CAMHB, CLSI/EUCAST broth microdilution, 5x10^5 CFU mL-1, 20-22 h, duplicates. Here is the method: as §1, §2
In series [9] the test system is Escherichia coli NCTC10418. The class given is cell-based. The following applies: strain NCTC10418; CAMHB, CLSI/EUCAST broth microdilution, 5x10^5 CFU mL-1, 20-22 h, duplicates. As to the method: as §1, §2

In the case of `CO[C@@H](CNC(=O)[C@H](NC(=O)[C@H](O)[C@H](C)O)[C@H](O)c1cncn1C)[C@H](O)[C@H](O)C(=O)N(C)[C@@H](Cc1ccccc1)C(=O)NCC(=O)N[C@H](C(=O)N[C@@H](CO)C(=O)N[C@H](C(=O)N[C@@H](CC(C)C)C(=O)N[C@@H](CO)C(=O)O)C(C)(C)O)C(C)(C)O` [Corramycin] ({Butanoyl(2R-OH,3S-OH)}-[dHis(βS-OH,π-Me)][Ava(2S,3R-(OH)2,4S-OMe)][NMeF]G[Val(3-OH)]S[Val(3-OH)]LS-OH), the MIC (as a rule, the lowest concentration that inhibits growth of the organism) is 16 µg/mL (≈ 13.5 µM) in [1]; 8 µg/mL (≈ 6.76 µM) against Escherichia coli 1705863; 4 µg/mL (≈ 3.38 µM) in series [3]; 8 to 16 µg/mL in series [4]; 64 µg/mL (≈ 54 µM) in [5]; 32 µg/mL (≈ 27 µM) in [6]. The MIC in series [7] is 64 µg/mL (≈ 54 µM); in series [8], 1 to 4 µg/mL; in series [9], 8 µg/mL (≈ 6.76 µM). Further, the “Time of plasma concentration above the MIC after i.v. administration” value in [2] is given as “less than 30 minutes”.
